In brackets after ≈: the same amount, converted by molar mass. Like-named read-outs stand apart in the source and are kept apart here. Bounds are passed on as bounds.

Consider 11 molecules from patent publication US7560229B2, “Methods of use of the enzymes of mycothiol synthesis” (priority 2002, dated 2009).

The subject of data set [1] is M. smegmatis mc^2155 (wild type). Briefly: Disk assay, redox cycling agents, zone of inhibition. Format: cell-based. The procedure: (§1) To determine sensitivity to redox cycling agents, disk assays were performed. Briefly, cells were grown to mid-log phase and a lawn of cells was plated onto PBT or LB plates supplemented with appropriate antibiotics. Various amounts of redox-cycling agents plumbagin, and […] menadione and nitrofurantoin were added to the disk in 10 μl volume and allowed to dry. The disks were placed onto the lawn of cells and incubated 2-3 days.

In data set [2] the test system is M. smegmatis mutant I64. Format: cell-based. The protocol:
as §1

The subject of data set [3] is M. smegmatis mutant Tn1. The format is cell-based. The procedure: as §1
Data set [4] deals with M. smegmatis mutant Tn2. Format: cell-based. The protocol: as §1
Data set [5] concerns M. smegmatis mc^2155 (wild type). The protocol: (§2) Peroxide sensitivity was determined by incubating cells (2.5×10^7 per ml) at 37° C. in Middlebrook 7H9 medium with 0.4% glucose and 0.05% TWEEN® 80 containing hydrogen peroxide at the desired level for 2 hours with shaking. Cells were diluted in fresh medium and plated on 7H10 agar. Colonies were counted when they achieved a diameter of 1-2 mm, which required 4-5 days for the wild type strain and up to 10 days for MSH-deficient mutant strains.

For data set [6], the system named is M. smegmatis mutant I64. The following applies: I64, FIG. 6. The protocol: as §2
The subject of data set [7] is M. smegmatis mutant Tn1. The protocol: as §2
Data set [8] relates to M. smegmatis mutant Tn2. The protocol: as §2
Data set [9] relates to M. smegmatis chemical mutant I64 (MshC deficient). Format: cell-based. The following applies: I64, from MIC. The protocol:
(§3) To test this hypothesis, Tn1, Tn2, and I64 were grown on PBT plates supplemented with increasing amounts of the alkylating agents mBBr, iodoacetamide, and 1-chloro-2,4-dinitrobenzene (CDNB). The alkylating agents were poured into the molten agar.

The subject of data set [10] is M. smegmatis transposon mutant Tn1 (MshC deficient). The format is cell-based. The following applies: Tn1, from MIC. The procedure:
as §3

Data set [11] relates to M. smegmatis transposon mutant Tn2 (MshC deficient). The format is cell-based. As to conditions: Tn2, from MIC. The procedure: as §3
Data set [12] has as its system M. smegmatis mutant I64. Nature of the data set: Antibiotic sensitivity test (MIC). The format is cell-based.
The subject of data set [13] is M. smegmatis parent strain mc^2155. Nature of the data set: Isoniazid MIC by Estrip. The format is cell-based. The following applies: Mycolicibacterium smegmatis; mc^2155, Estrip, 2-3 days at 37° C.
Data set [14] deals with M. smegmatis transposon mutant mshA::Tn5. Nature of the data set: Isoniazid MIC by Estrip. Format: cell-based. As to conditions: Mycolicibacterium smegmatis.
The subject of data set [15] is M. smegmatis chemical mutant 49. Nature of the data set: Isoniazid MIC by Estrip. The format is cell-based. As to conditions: Mycolicibacterium smegmatis.
For data set [16], the system named is M. smegmatis complemented mshA::Tn5 (mshA::Tn5 pAL0486). Briefly: Isoniazid MIC by Estrip. Format: cell-based. The following applies: Mycolicibacterium smegmatis.
In data set [17] the test system is M. smegmatis complemented strain 49 (49::pAL0486). Nature of the data set: Isoniazid MIC by Estrip. Format: cell-based. As to conditions: Mycolicibacterium smegmatis.
Data set [18] has as its system M. smegmatis mc^2155. As to conditions: mc^2155, plating on antibiotic containing media, found earlier; cited from earlier work.
Data set [19] deals with M. smegmatis mutant 49. As to conditions: cited from earlier work.
Data set [20] has as its system N[C@@H](CS)C(=O)O. Briefly: purified protein, by the assay type. As to conditions: other: [ATP]=1 mM, [GlcN-Ins]=300 μM, Cys 5-400 μM; pH 7.5.
Experimental: (§4) A minor modification of the protocol described by Anderberg et al (supra) was used for routine measurement of ATP-dependent ligase activity. The enzyme activity was assayed in a final volume of 25 μL containing 12.5 μL of the ligase in different dilutions, 50 μM GlcN-Ins, 100 μM Cys (Calbiochem), 1 mM ATP (Sigma), 1 mM MgCl2 (Fisher), 1 mM DTT (Calbiochem), 25 mM N-2-hydroxyethylpiperazine-N′-2-ethanesulfonic acid (HEPES) (Sigma), pH 7.5, and 35 μM each of the protease inhibitors (Sigma) N-α-p-tosyl-L-phenylalanylchloromethyl ketone and N-α-p-tosyl-L-lysinechloromethyl ketone. The mixture was incubated at 37° C. for 30 min. The assay was terminated by addition of 25 μL of 8 mM mBBr in acetonitrile and heating the mixture at 60° C. for 5 min to derivatize the thiols. The derivatization was quenched with the addition of 150 μl of 10 mM methanesulfonic acid and vortexing. HPLC analysis of CySmB-GlcN-Ins and CySmB was carried out by HPLC using a Beckman Ultrasphere IP (250×4.6 mm) analytical column fitted with a Brownley OD-GU 5 μ C-18 cartridge using the following linear gradients: 0 min., 100% A (0.1% TFA in water); 10 min, 100% A; 30 min, 80% A; 33 min, 100% B (7.5% methanol in acetonitrile); 36 min, 100% B; 38 min, 100% A; 60 min, 100% A (reinjection). The flow rate was 1 mL/min. and the fluorescence detection was accomplished with a 370 nm excitation filter and a 418-700 nm emission filter. The Vmax and Km values were calculated by least-squares analysis of Eadie-Hofstee plots with initial rate data using KaleidaGraph 3.5 (Synergy Software).
Data set [21] concerns the target M. smegmatis Cys:GlcN-Ins ligase (MshC) (Mycolicibacterium smegmatis, UniProt A0QZY0). Nature of the data set: ATP-dependent Cys:GlcN-Ins ligase assay, substrate kinetics. As to conditions: [ATP]=1 mM, [Cys]=100 μM.
Experimental: as §4

Chain of M. smegmatis Cys:GlcN-Ins ligase (MshC) (A0QZY0 whole entry): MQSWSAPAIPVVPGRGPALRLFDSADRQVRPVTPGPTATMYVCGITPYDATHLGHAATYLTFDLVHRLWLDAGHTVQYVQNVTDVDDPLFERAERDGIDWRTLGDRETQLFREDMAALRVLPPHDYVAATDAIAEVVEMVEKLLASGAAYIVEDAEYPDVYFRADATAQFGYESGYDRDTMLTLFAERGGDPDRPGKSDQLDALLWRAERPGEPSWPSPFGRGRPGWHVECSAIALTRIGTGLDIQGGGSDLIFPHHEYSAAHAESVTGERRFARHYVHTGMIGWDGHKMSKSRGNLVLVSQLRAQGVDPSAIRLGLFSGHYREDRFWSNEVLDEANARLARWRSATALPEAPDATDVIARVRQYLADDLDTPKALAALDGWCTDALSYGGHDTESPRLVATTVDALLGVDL

As for `CC1=CC(=O)c2c(O)cccc2C1=O` [Plumbagin, plumbagin], the “Zone of Inhibition” value in [1] (0.005 μmol agent on disk) is 11.0 ± 1.0 mm; in data set [1] (0.01 μmol agent on disk), 13.5 ± 0.5 mm; in [2] (I64, 0.005 μmol agent on disk), 9.3 ± 0.9 mm; in [2] (I64, 0.01 μmol agent on disk), 13.3 ± 1.9 mm; in [3] (Tn1, 0.005 μmol agent on disk), 17.0 ± 0.6 mm; in data set [3] (Tn1, 0.01 μmol agent on disk), 23.0 ± 1.2 mm. Also, the “Zone of Inhibition” value in data set [4] (Tn2, 0.005 μmol agent on disk) is reported as 15.0 ± 0.0 mm; in [4] (Tn2, 0.01 μmol agent on disk), 23.0 ± 1.0 mm.

Take `OO` [hydrogen peroxide]: the “H2O2 concentration at which the strain can survive” value in data set [5] was 10 mM. For the same molecule, the “tolerance to peroxide stress” value in [6] was “intermediate between wild type mc^2155 and the transposon mutants”. Also, the “H2O2 concentration the strain is unable to tolerate” value in data set [7] (Tn1, 2 hours at 37° C., FIG. 6) is not above 1 MM; in data set [8] (Tn2, 2 hours at 37° C., FIG. 6), not above 1 MM. For the same molecule, the “times more sensitive to hydrogen peroxide than the wild type strain” value was “about 10 times” in data set [7] (Tn1, FIG. 6) and “about 10 times” in data set [8] (Tn2, FIG. 6).

On to `Cc1c(C)n2c(CBr)c(C)c(=O)n2c1=O` [mBBr, monobromobimane], for which the figures for the “increase in sensitivity compared to wild type mc^2155” value (“increase in sensitivity” for short) in data set [9], in data set [10] and in [11] were “more susceptible”, 4 fold and 4 fold, respectively.

Turning to `NC(=O)CI` [Iodoacetamide, iodoacetamide], the “increase in sensitivity” value in data set [9] is given as “two-fold”; in data set [10], “two-fold”; in data set [11] it was 5 fold.

For the molecule `CC1=CC(=O)c2ccccc2C1=O` [Menadione, menadione], the “Zone of Inhibition” value is given as 9.7 ± 0.3 mm in [1] (0.1 μmol agent on disk); 19.7 ± 0.9 mm in data set [1] (0.5 μmol agent on disk); 8.7 ± 0.7 mm in [2] (I64, 0.1 μmol agent on disk); 26.7 ± 0.9 mm in data set [2] (I64, 0.5 μmol agent on disk); 20.7 ± 3.8 mm in [3] (Tn1, 0.1 μmol agent on disk); 31.3 ± 1.3 mm in data set [3] (Tn1, 0.5 μmol agent on disk). Further, the “Zone of Inhibition” value in [4] (Tn2, 0.1 μmol agent on disk) is listed as 15.3 ± 2.0 mm; in data set [4] (Tn2, 0.5 μmol agent on disk), 16.4 ± 1.9 mm.

As for `NNC(=O)c1ccncc1` [Isoniazid, isoniazid], the “fold greater resistance than the wild type” value in data set [12] is recorded as 16 fold. The MIC (commonly the smallest concentration in the dilution series that meets the test's criterion for growth inhibition) is 1 µg/mL (≈ 7.29 µM) in data set [13]; more than 250 µg/mL in data set [14]; more than 250 µg/mL in data set [15]; 2.7 µg/mL (≈ 19.7 µM) in data set [16]; 28 µg/mL (≈ 204 µM) in data set [17]; 2 µg/mL (≈ 14.6 µM) in data set [18]. Moreover, the minimal inhibitory concentration (MIC) in data set [19] (mutant 49, plating on antibiotic containing media, found earlier) was more than 50 µg/mL. The “isoniazid concentration to which strain 49 is resistant” value in [19] (strain 49 (Newton et al. 1999)) was 100 μg isoniazid/ml.

On to “M. smegmatis Cys:GlcN-Ins ligase (MshC) (Mycolicibacterium smegmatis MC2 155)”, for which, in data set [20], the Km (as a rule, the concentration of substrate that gives half-maximal velocity) worked out at 40 ± 3 µM and the Vmax – broadly, the rate approached at saturating substrate – amounted to 83 ± 3 nmol/min/mg.

With `CN(C)C(=O)/N=N/C(=O)N(C)C` [Diamide, diamide], the “increase in sensitivity” value was “doubled” in [9], “greater than 10 fold” in data set [10] and “greater than 10 fold” in data set [11].

As to `O=C1CN(/N=C/c2ccc([N+](=O)[O-])o2)C(=O)N1` [Nitrofurantoin, nitrofurantoin], the “Zone of Inhibition” value was 4.7 ± 0.3 mm in [1] (0.5 μmol agent on disk); 6.0 ± 0.6 mm in data set [1] (1.0 μmol agent on disk); 5.0 ± 0.6 mm in data set [2] (I64, 0.5 μmol agent on disk); 8.7 ± 0.3 mm in [2] (I64, 1.0 μmol agent on disk); 10.7 ± 2.6 mm in data set [3] (Tn1, 0.5 μmol agent on disk); 14.0 ± 2.7 mm in [3] (Tn1, 1.0 μmol agent on disk). Also, the “Zone of Inhibition” value in data set [4] (Tn2, 1.0 μmol agent on disk) is 35.0 ± 3.6 mm.

On to `N[C@H]1[C@@H](OC2[C@H](O)[C@H](O)C(O)[C@H](O)[C@H]2O)O[C@H](CO)[C@@H](O)[C@@H]1O` (stereo partly drawn) [GlcN-Ins, 1D-myo-inosityl 2-amino-2-deoxy-α-D-glucopyranoside], for which the “Vmax (GlcN-Ins varied)” value in data set [21] turned out to be 90 ± 7 nmol/min/mg. Besides, the Km in data set [21] (read-out: apparent Km for GlcN-Ins, GlcN-Ins 5-600 μM) amounted to 72 ± 9 µM.

With `O=[N+]([O-])c1ccc(Cl)c([N+](=O)[O-])c1` [CDNB, 1-chloro-2,4-dinitrobenzene], the “increase in sensitivity” value in data set [10] and in data set [11] was 2-3 fold in each case.
